Data reported in patent publication US20140127185A1, “METHODS AND COMPOSITIONS USING NEUROPROTECTIVE STEROIDS AND THROMBOLYTIC AGENTS” (priority 2012, published 2014).

What was measured:
occludin = assay: Occludin in H/R-treated bEND3 cells (Western blot, immunofluorescence); type: cell-based, mouse
Experimental: (§1) An immortalized mouse brain endothelial cell line (bEND 3) is purchased from American Type Culture Collection (ATCC, VA, USA) and cultured in Dulbecco's modified Eagle Medium (DMEM, ATCC) supplemented with 10% fetal bovine serum (ATCC). bEND 3 cells are seeded onto the luminal side of a filter (0.4 μm pore size; Corning, Lowell, MCA) coated with fibronectin (5 μg/ml) in 12-well plates for a transendothelial electrical resistance (TEER) test; and in 100-mm dishes for Western blot studies. Cell cultures are incubated at 37° C. in a 5%/95% mixture of CO2 and atmospheric air, and the medium is replaced every 3 days.
Peri-infarct cortical tissue is processed for protein analysis. Tissues are homogenized in T-per (Pierce, Rockford, Ill.) containing protease inhibitor cocktail (P8340, Sigma). Homogenates are centrifuged for 15 minutes at 13,000 g. 40 μg of total protein is separated on 8-12% gel and transferred onto polyvinylidene difluoride (Millipore, Mass., USA; PVDF) membranes at 300 mA for 2 hours. To measure the level of immunoglobulin, the membranes were incubated overnight at 4° C. with anti Rat IgG conjugated to biotin. bEND 3 cells are subjected to hypoxia/reperfusion for 9 hours and then lysed on ice in 100 μl of RIPA buffer. Cell lysated are boiled and then electrophoresed in 12% SDS-PAGE acrylamide gels, transferred onto PVDF membranes, and incubated for 1 hour in TBS-T (tris-buffered saline and 0.1% Tween 20) containing 5% bovine serum albumin (BSA). Membranes are then incubated overnight at 4° C. with primary antibodies against occludin (Invitrogen, Calif., USA; 1:1000), claudin-5 (Invitrogen; 1:1000), and ZO-1 (Invitrogen; 1:1000), washed in TBS-T, and incubated for 1 hour at room temperature with corresponding peroxidase-conjugated secondary antibodies (1:5000; KPL, Gaithersburg, Md.). All blots are stripped and re-incubated with β-actin antibodies (1:5000, Sigma) as a loading control. The peroxidase reaction is developed with an ECL-plus detection kit (Amersham BioScience, Piscataway, N.J.). Intensity of the bands is measured by an Image Gauge version. 4.0 program (FUJI Photo Film Co., Ltd).
The bEnd 3 cells grown to confluence on coverslips are subjected to the indicated treatments. […]
(§2) To mimic ischemia-like conditions in vitro, immortalized mouse brain endothelial (bEND3) cells were exposed to 6 hours of hypoxia and 3 hours of reoxygeneation with or without the administration of tPA at a dose of 20 μ/ml. […] BBB integrity was evaluated by transendothelial membrane electrical resistance (TEER) measurement, MMP-9 activity, and the alteration of tight junction proteins following in vitro H/R injury.

claudin-5 = assay: Claudin-5 in H/R-treated bEND3 cells (Western blot); type: cell-based, mouse; details: tPA with H/R
Experimental: as §1
Peri-infarct cortical tissue is processed for protein analysis. Tissues are homogenized in T-per (Pierce, Rockford, Ill.) containing protease inhibitor cocktail (P8340, Sigma). Homogenates are centrifuged for 15 minutes at 13,000 g. […] Intensity of the bands is measured by an Image Gauge version. […]
as §2

[1] = test system: blood-brain barrier (BBB); assay: BBB disruption: serum IgG in ischemic cortex by Western blot; type: in vivo, rat; details: 24 hours after ischemic injury and tPA treatment
bEND3 cells = assay: Transendothelial electrical resistance (TEER) after hypoxia/reperfusion (H/R); type: cell-based, mouse; details: tPA 20 μ/ml; 6 hours hypoxia, 3 hours reoxygenation
Experimental: as §1
The electrical resistance across the membrane are measured using an Millicell ERS Voltohmmeter (Millipore, Billerica, Mass.). The extracellular matrix-treated Transwell inserts are placed in 12-well plates containing culture medium and then used to measure the background resistance. The resistance measurements of these blank filters are then subtracted from those of filters with cells. Values are shown as Q. based on culture inserts.
To mimic ischemia-like conditions in vitro, immortalized mouse brain endothelial (bEND3) cells were exposed to 6 hours of hypoxia and 3 hours of reoxygeneation with or without the administration of tPA at a dose of 20 μ/ml. Reoxygenation was initiated by adding glucose (4.5 g/L)-containing phenol red-free DMEM for 3 hours at 37° C. in 95% air and 5% CO2. The cells were treated with various concentrations progesterone for 24 hours before hypoxia/reperfusion (H/R). BBB integrity was evaluated by transendothelial membrane electrical resistance (TEER) measurement, MMP-9 activity, and the alteration of tight junction proteins following in vitro H/R injury.

MMP-9 = MMP-9 levels in bEND3 cells exposed to H/R and tPA; type: cell-based, mouse; details: bEND3 cells exposed to H/R and tPA for 9 hours; progesterone pretreatment
Experimental: The bEnd 3 cells grown to confluence on coverslips are subjected to the indicated treatments. For […], cells are washed three times with PBS, fixed in 3% paraformaldehyde for 10 minutes, permeabilized with 02% Triton X-100 in PBS for 10 minutes and blocked with 10% BSA and 0.1% Triton X-100 in PBS for 1 hour. After washing with PBS, the monolyers are incubated with a primary antibody for occludin (Invitrogen, 1:200) and MMP-9 (Abeam, Mass., USA, 1:200) overnight at 4° C. The cell monolayers are then washed 3 times with PBS and incubated with Alexa Fluor 488 anti-rabbit and orange anti-mouse (Molecular Probes, Eugene, Oreg.) for 1 hour. After washing in PBS, the coverslips are mounted on glass slides with Vectasheild with dapi (Vecta Laboratories).
as §2
To directly determine MMP-9 activity after ischemia, proteolytic activity of MMP-9 was measured using a fluorescence resonance energy transfer peptide. […]

Q: Which results are given for “tPA: serum protease acting specifically on serum plasminogen; also known as alteplase, available commercially as Activase”?
A: Detected levels of occludin (immunofluorescence) (occludin; bEND3 cells exposed to H/R and tPA for 9 hours, progesterone pretreatment): reduced; Expression of occludin (Western blot) (occludin; bEND3 cells, tPA with H/R): markedly decreased; Expression of 23-kDa claudin-5 (Western blot) (claudin-5): markedly decreased; Increase of IgG levels in ischemic cortex [1]: up to 2 ×; TEER under H/R conditions (bEND3 cells): significantly decreased; MMP-9 levels (MMP-9): increased
